Data: US12402628B2, “Compositions, kits, methods and uses for cleaning, disinfecting, sterilizing and/or treating” (Collidion, Inc., priority 2018, dated 2025)
Values joined by “and” are separate entries in the source; they are usually repeats but may differ in a detail not shown here. Equal values may be shown once.

Test system: Staphylococcus epidermidis (ATCC 12228)
Assay: Bacterial viability assay with Bovine Serum, HOCl and salt controls (Table 30)
Assay type: cell-based
Settings: 200 ppm Hypochlorous acid, 5 minutes
Protocol: Stock cultures of pathogenic bacteria Staphylococcus epidermidis (ATCC 12228) were prepared as described in Example 3. The final numeration count uses aliquot volume, count obtained on TSA plate and the total original volume of culture. The remaining amount in the tube was used to inoculate actual test samples. Samples from each composition tested were set up with Bovine Serum as follows: 1) Assays with serum contained 100 μL of pathogenic bacteria suspension, 500 μL of Bovine Serum and 9400 μL of one of the composition formulations shown in Table 29; 2) HOCl control assays contained 100 μL of pathogen bacteria suspension, 500 μL of Bovine Serum and 9400 μL of 350 ppm, 200 ppm, 100 ppm or 50 ppm Hypochlorous acid; 3) Salt control assays contained 100 μL of pathogen bacteria suspension, 500 μL of Bovine Serum and 9400 μL of 140 ppm, 80 ppm, 40 ppm or 20 ppm each of Copper (II) chloride, Iron (II) chloride and zinc chloride or each of Copper (II) chloride, Iron (III) chloride and zinc chloride; and 4) Negative control assays contained 100 μL of pathogen bacteria suspension, 500 μL of Bovine Serum and 9400 μL of sterile water. Samples were exposed for five (5) minutes at which point a neutralizing agent was used to inhibit the activity of the microbial agent being tested. […] The presence of viable bacteria was then measured by counting the number of colonies observed on the agar medium.

Substance: Hypochlorous acid [HOCl Control]
- Log Growth Reduction, HOCl Control: 3.03 log and 3.00 log
